How the values were obtained:
[1] = Cell viability (tryphan blue) and cell death of Jurkat cells; type: cell-based, human; settings: human, Jurkat cells (CD4+ T cell line), 1000 nM, four hours of incubation, read-out: treated cells non viable (tryphan blue staining)
Description: (§1) Panel A, Jurkat cells (a CD^4+ T cell line) were grown in RPMI 1640 and 10% (v/v) fetal bovine serum. Cells (10^6 cells per ml) were treated (+) or not (−) with 1000 nM SYRAPRO-2000. Cell viability was then determined by counting the cells following tryphan blue staining after 1, 2 and 4 hours of incubation. Panel B, Following treatment with SYRAPRO-2000 for 1, 2 and 4 hours as indicated, Jurkat cells (10^6/ml) were washed with RPMI plus 2% fetal bovine serum and then deposited onto glass slides by cytospinning. Phase contrast images were then obtained with white light emission on a Zeiss Axioplan 2 imaging universal microscope (Thornwood, N.Y.). […]
(§2) Jurkat cells are grown in RPMI 1680 medium supplemented with 5% (v/v) fetal bovine serum and antibiotics and treated or not with 1 μM of SYRAPRO-2000 for 1 hour, 2 hours and 4 hours. Following treatment with SYRAPRO-2000, cell viability are then determined by counting the cells following tryphan blue staining. […]
(§3) Following treatment of cells with SYRAPRO-2000, cells were examined by phase contrast microscopy or by fluorescent microscopy following staining with FITC labeled annexin V (apoptotic cell death) and propidium iodide (oncolytic cell death). Cells were analyzed on a Zeiss Axioplan 2 imaging universal microscope (Thornwood, N.Y.). […] Green (FITC labeled annexin V) and red (propidium iodide) fluorescence images were obtained. […]

Jurkat cells = assay: as above; type: cell-based, human; settings: 1000 nM
Description: as §1, §2, §3

[2] = Cell viability (tryphan blue) and cell death of SK-N-SH cells; type: cell-based, human; settings: human, SK-N-SH cells (neuroblastoma cell line), 2000 nM, 4 days of incubation, read-out: treated cells non viable (tryphan blue staining)
Description: (§4) Panel A, SK—N—SH cells (a human neuroblastoma cell line) were grown in DMEM and 5% (v/v) fetal bovine serum. Cells (10^6 cells per ml) were treated (+) or not (−) with 2000 nM SYRAPRO-2000. Cell viability was then determined by counting the cells following tryphan blue staining after 4, 8 and 12 days of incubation. Panel B, Following treatment with or without SYRAPRO-2000 for 8 days, SK—N—SH cells grown on slides were analyzed by phase contrast microscopy (Row A), by fluorescence microscopy following staining with FITC labeled annexin V (apoptotic cell death) (Row B) or propidium iodide (oncolytic cell death) on a on a Zeiss Axioplan 2 imaging universal microscope (Thornwood, N.Y.). Phase contrast images and Green (FITC labeled annexin V) and red (propidium iodide) fluorescence images were obtained. […]
(§5) SK—N—SH cells are grown in DMEM supplemented with 5% (v/v) fetal bovine serum and antibiotics and treated or not with 2 μM SYRAPRO-2000 for 8 days. Following treatment with SYRAPRO-2000, cell viability are then determined by counting the cells following tryphan blue staining. […] Following treatment with SYRAPRO-2000, cells grown on slides by were analyzed by phase contrast microscopy and fluorescence microscopy following staining with FITC labeled annexin V (an indicator of apoptotic cell death) or propidium iodide (an indicator of oncolytic or necrotic cell death). […]

SK—N—SH cells = assay: as above; type: cell-based, human; settings: 2000 nM, 8 days
Description: as §4, §5

[3] = Dissolution of purified peptide in water; type: physicochemical
Description: SYRAPRO-2000, a peptide compound activator of protein phosphatase-2A1 was prepared by chemical synthesis on an automated Solid Phase Peptide Synthesizer. Following synthesis, it was cleaved and purified by reverse phase HPLC on a C18 column. The structure of SYRAPRO-2000 is: […]. The molecular mass of SYRAPRO-2000 was determined by MALDI ToF MS. The purified material, a white solid was readily dissolved in and reconstituted in water at ˜1-2 mg/ml. For its use as an in vitro activator of protein phosphatase-2A1, it is dissolved in the assay buffer which consisted of 0.02 ml of enzyme solution in 50 mM Imidazole-Cl pH 7.2, 0.2 mM EGTA, 0.1% (v/v) 2-mercaptoethanol and 1 mg/ml bovine serum albumin. For its use on intact cells, it is dissolved in the culture medium.

CC[C@H](C)[C@H](NC(=O)[C@H](CCCNC(=N)N)NC(=O)[C@H](CO)NC(=O)[C@H](Cc1c[nH]cn1)NC(=O)[C@H](CCCNC(=N)N)NC(=O)[C@H](CS)NC(=O)CNC(=O)[C@@H](NC(=O)[C@H](CCCNC(=N)N)NC(=O)[C@H](Cc1ccccc1)NC(=O)[C@@H](N)Cc1c[nH]cn1)[C@@H](C)CC)C(=O)NCC(=O)N[C@H](C(=O)N[C@H](C(=O)N[C@@H](CCCNC(=N)N)C(=O)N[C@@H](CCC(N)=O)C(=O)N[C@@H](CCCNC(=N)N)C(=O)N[C@@H](CCCNC(=N)N)C(=O)N[C@@H](C)C(=O)N[C@@H](CCCNC(=N)N)C(=O)N[C@@H](CC(N)=O)C(=O)NCC(=O)N[C@@H](C)C(=O)N[C@@H](CO)C(=O)N[C@@H](CCCNC(=N)N)C(=O)N[C@@H](CO)C(=O)O)[C@@H](C)O)C(C)C [SYRAPRO-2000]
cytotoxicity at 4 h, 1 µM [1]: ~60%
mode of cell death (phase contrast microscopy) (Jurkat cells): oncolysis
cytotoxicity at 4 days, 2 µM [2]: ~50%
mode of cell death (FITC-annexin V and propidium iodide staining) (SK—N—SH cells): apoptosis and oncolysis
readily dissolved and reconstituted in water [3]: 1 to 2 mg/mL

Source: patent US20060252683A1, “Preparation of a peptide compound (SYRAPRO-2000) and its use for the activation of protein phosphatase-2A1 enzyme” (priority 2005, published 2006)
